Laboratory results published in the NIST ThermoML archive (doi:10.1021/je800158z).

What was measured:
[1] = 81.5 kPa, Liquid
[2] = xn = mol fraction of the nth substance listed; settings: 81.5 kPa, Liquid

CCCO [propan-1-ol]
[1]
Settings	mass density [kg/m3]
293.15 K	803.59
303.15 K	795.53
313.15 K	787.38
323.15 K	778.92

CC(C)O [propan-2-ol] + O
mass density [kg/m3], [2]
Settings	293.15 K	303.15 K	313.15 K	323.15 K
x1 = 0.0399	979.61	976	971.52	966.2
x1 = 0.1197	948.88	941.64	934.18	926.48
x1 = 0.2017	916.63	908.64	900.42	891.98
x1 = 0.28	891.87	883.56	875.01	866.23
x1 = 0.359	871.15	862.65	853.89	844.85
x1 = 0.4384	854.11	845.46	836.52	827.31
x1 = 0.5204	839.36	830.58	821.54	812.2
x1 = 0.5995	827.56	818.72	809.6	800.16
x1 = 0.6801	817.14	808.26	799.08	789.6
x1 = 0.7552	808.56	799.67	790.48	780.98
x1 = 0.8403	799.95	791.1	781.97	772.47
x1 = 0.9225	792.03	783.34	774.33	764.97
x1 = 1	785.1	776.63	767.84	758.68
